In patent US11229636B2, “Substituted tetrahydroquinolinone compounds as ROR gamma modulators” (Aurigene Discovery Technologies Limited, priority 2015, dated 2022):

Key:
RORγ LBD = RORγ LBD (Homo sapiens (Human), UniProt P51449); assay: ROR gamma radio-ligand binding assay (3H 25-Hydroxycholesterol competitive displacement, dextran charcoal method); conditions: for RORγ ligand binding assay: % inhibition @1 μM / inhibition at 1 µM: 1 μM compound; for RORγ ligand binding assay: % inhibition @ 10 μM: 10 μM compound; for IC50: in range
RORγ LBD, sequence (P51449 268-518): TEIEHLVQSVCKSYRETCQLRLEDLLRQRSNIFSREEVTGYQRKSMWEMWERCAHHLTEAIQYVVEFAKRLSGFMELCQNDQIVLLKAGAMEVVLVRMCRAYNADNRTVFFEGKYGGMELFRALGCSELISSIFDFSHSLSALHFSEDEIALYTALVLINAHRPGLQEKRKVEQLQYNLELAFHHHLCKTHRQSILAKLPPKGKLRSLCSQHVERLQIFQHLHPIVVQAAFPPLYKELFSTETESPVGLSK
Protocol: Gene corresponding to the ligand binding domain of RORγ (247-497 amino acids) was sub-cloned into pGEX4T1 vector. Transformants of E. coli BL21 (DE3) containing pGEX4T1-RORγ (247-497) were grown to an OD of 0.8 at 37° C. and induced with 0.5 mM isopropyl-β-D-thiogalactopyranoside (IPTG) for 18 hours at 18° C. Cells were harvested and resuspended in 20 mM Tris-HCl (pH 8.5), 0.3 M NaCl, 10% Glycerol, 2 mM β-Me (β-Mercaptoethanol), 2 mM CHAPS, protease inhibitors, 0.6 mM PMSF and Lysozyme. Supernatant of lysate was passed through glutathione sepharose 4B affinity beads (GE health care) pre-equilibrated with 20 mM Tris-HCl (pH 8.5), 0.3 M NaCl, 10% Glycerol, 2 mM β-Me. RORγ was eluted using a gradient of reduced glutathione (3-20 mM). Fractions containing RORγ protein were pooled, concentrated and passed through Superdex 75 gel filtration (GE health care) column equilibrated with 20 mM Na-phosphate pH 8.0, 0.2 M NaCl, 10% glycerol. The peak fractions from gel filtration column were pooled and stored at −80° C. for Binding assay.
ROR gamma radioligand binding was performed using ^3H 25-Hydroxycholesterol in a competitive displacement assay using dextran charcoal method. Using 5 nM ^3H 25-Hydroxycholesterol with 300 ng RORγ LBD (in house expressed in E. coli) along with the compound were incubated in the binding buffer (50 mM HEPES, pH 7.5, 150 mM NaCl, 0.01% BSA and 5 mM MgCl2) for 30 min at room temperature. Then dextran-charcoal mixture (0.5% charcoal: 0.05% dextran) was used for separation and the supernatant was read on the Perkin Elmer Trilux Microbeta counter. Dose response curves were generated for 10 compound concentrations using GraphPad Prism software Version 5 (San Diego, Calif., USA) using non-linear regression curve fit for sigmoidal dose response (variable slope).

[1] = target: ROR gamma ligand binding domain (Homo sapiens (Human), UniProt P51449); assay: ROR gamma luciferase reporter assay (GAL4-ROR gamma LBD, HEK293 cells); format: cell-based; conditions: 48 hours treatment, read-out: RORγ luciferase Reporter assay: IC50 (nM) (in range)
ROR gamma ligand binding domain, sequence (P51449 269-508): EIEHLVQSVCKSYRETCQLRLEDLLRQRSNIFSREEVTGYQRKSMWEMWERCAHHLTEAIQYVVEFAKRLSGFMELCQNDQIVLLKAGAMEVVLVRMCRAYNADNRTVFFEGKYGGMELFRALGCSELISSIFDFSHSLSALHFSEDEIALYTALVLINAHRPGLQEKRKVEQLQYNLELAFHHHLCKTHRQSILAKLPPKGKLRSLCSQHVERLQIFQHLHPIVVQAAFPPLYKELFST
Protocol: The Ligand Binding Domain (LBD) of ROR gamma was cloned into pFN26A (BIND) hRluc-neo Flexi vector (Promega) which expresses a fusion protein comprised of a DNA binding domain of the yeast GAL4 gene, a linker segment and ROR gamma ligand binding domain. For the reporter assay 0.02×10^6 HEK293 cells were seeded per well in a 96 well plate in complete media and incubated overnight in an incubator with 5% CO2 at 37° C. before transfection. Cells were then co-transfected with pFN26A hRluc-neo Flexi vector containing the LBD of ROR gamma and pGL4.35 [luc2P/9XGAL4 UAS/Hygro] Vector (Promega) in low serum media. Post transfection and recovery, cells were treated with the test compounds for 48 hours. The assay was terminated using the Bright-Glo Luciferase assay system from Promega and the Luminescence was measured using a luminescence reader. The luminescence values were used to calculate the potency of the compounds.

Row | RORγ ligand binding assay: % inhibition @1 μM (RORγ LBD) [%] | RORγ ligand binding assay: % inhibition @ 10 μM (RORγ LBD) [%] | IC50 (RORγ LBD) [nM] | IC50 [1] [nM] | inhibition at 1 µM (RORγ LBD) [%] | SMILES
1 | 94 | 88 | < 150 | 100 to 500 |  | CCS(=O)(=O)c1ccc(CC(=O)Nc2ccc3c(n2)CCC(C)(c2cc(C)nc(C)n2)C3=O)cc1 (single isomer, unassigned) [compound 104, N-(6-(2,6-dimethylpyrimidin-4-yl)-6-methyl-5-oxo-5,6,7,8-tetrahydroquinolin-2-yl)-2-(4-(ethylsulfonyl)phenyl)acetamide]
2 | 70 | 1 |  | > 500 |  | CCS(=O)(=O)c1ccc(CC(=O)Nc2ccc3c(n2)CCC(C)(c2nccn4cc(C)nc24)C3=O)cc1 (single isomer, unassigned) [compound 106, 2-(4-(ethylsulfonyl)phenyl)-N-(6-methyl-6-(2-methylimidazo[1,2-a]pyrazin-8-yl)-5-oxo-5,6,7,8-tetrahydroquinolin-2-yl)acetamide]
3 |  | 90 | < 150 | 100 to 500 | 91 | CCS(=O)(=O)c1ccc(CC(=O)Nc2cc(C)c3c(n2)CCC(C)(c2cc(C)nc(C)n2)C3=O)cc1 (single isomer, unassigned) [compound 107, N-(6-(2,6-dimethylpyrimidin-4-yl)-4,6-dimethyl-5-oxo-5,6,7,8-tetrahydroquinolin-2-yl)-2-(4-(ethylsulfonyl)phenyl)acetamide]
4 | 78 | 28 | > 300 | > 500 |  | CCS(=O)(=O)c1ccc(CC(=O)Nc2cc(C)c3c(n2)CCC(C)(c2cc(C)nc(C)n2)C3=O)cc1 (single isomer, unassigned) [compound 108, N-(6-(2,6-dimethylpyrimidin-4-yl)-4,6-dimethyl-5-oxo-5,6,7,8-tetrahydroquinolin-2-yl)-2-(4-(ethylsulfonyl)phenyl)acetamide]
5 |  | 36 |  | > 500 | 91 | CCS(=O)(=O)c1ccc(CC(=O)Nc2cc(C)c3c(n2)CCC(C)(c2ccc(OC)nn2)C3=O)cc1 (single isomer, unassigned) [compound 109, 2-(4-(ethylsulfonyl)phenyl)-N-(6-(6-methoxypyridazin-3-yl)-4,6-dimethyl-5-oxo-5,6,7,8-tetrahydroquinolin-2-yl)acetamide]
6 | 100 | 81 |  | < 100 |  | CCS(=O)(=O)c1ccc(CC(=O)Nc2cc(C)c3c(n2)CCC(C)(c2ccc(OC)nn2)C3=O)cc1 (single isomer, unassigned) [compound 110, 2-(4-(ethylsulfonyl)phenyl)-N-(6-(6-methoxypyridazin-3-yl)-4,6-dimethyl-5-oxo-5,6,7,8-tetrahydroquinolin-2-yl)acetamide]
7 | 62 | 19 | > 300 | > 500 |  | CCS(=O)(=O)c1ccc(CC(=O)Nc2ccc3c(n2)CCC(C)(c2ncc(OC)cn2)C3=O)cc1 (single isomer, unassigned) [compound 111, 2-(4-(ethylsulfonyl)phenyl)-N-(6-(5-methoxypyrimidin-2-yl)-6-methyl-5-oxo-5,6,7,8-tetrahydroquinolin-2-yl)acetamide]
8 | 100 | 73 | < 150 | 100 to 500 |  | CCS(=O)(=O)c1ccc(CC(=O)Nc2ccc3c(n2)CCC(C)(c2ncc(OC)cn2)C3=O)cc1 (single isomer, unassigned) [compound 112, 2-(4-(ethylsulfonyl)phenyl)-N-(6-(5-methoxypyrimidin-2-yl)-6-methyl-5-oxo-5,6,7,8-tetrahydroquinolin-2-yl)acetamide]

The next lines start with the molecule.

Row | SMILES | RORγ ligand binding assay: % inhibition @1 μM (RORγ LBD) [%] | RORγ ligand binding assay: % inhibition @ 10 μM (RORγ LBD) [%] | IC50 (RORγ LBD) [nM] | IC50 [1] [nM] | inhibition at 1 µM (RORγ LBD) [%]
9 | CCS(=O)(=O)c1ccc(CC(=O)Nc2ccc3c(n2)CCC(C)(c2nccn4cc(C)nc24)C3=O)cc1 (single isomer, unassigned) [Compound-105, 2-(4-(ethylsulfonyl)phenyl)-N-(6-methyl-6-(2-methylimidazo[1,2-a]pyrazin-8-yl)-5-oxo-5,6,7,8-tetrahydroquinolin-2-yl)acetamide] | 100 | 97 | < 150 | < 100 | 
10 | CCS(=O)(=O)c1ccc(CC(=O)Nc2ccc3c(n2)CCC(C)(c2cc(C)nc(C)n2)C3=O)cc1 (single isomer, unassigned) [compound 103, N-(6-(2,6-dimethylpyrimidin-4-yl)-6-methyl-5-oxo-5,6,7,8-tetrahydroquinolin-2-yl)-2-(4-(ethylsulfonyl)phenyl)acetamide] | 26 | 0 |  | > 500 | 
11 | CCS(=O)(=O)c1ccc(CC(=O)Nc2cc3c(cn2)C(=O)C(C)(c2cc(C)nc(C)n2)CC3)cc1 (centres unmarked) [Compound 83, N-(7-(2,6-dimethylpyrimidin-4-yl)-7-methyl-8-oxo-5,6,7,8-tetrahydroisoquinolin-3-yl)-2-(4-(ethylsulfonyl)phenyl)acetamide] |  |  |  | 100 to 500 | 
12 | CCS(=O)(=O)c1ccc(CC(=O)Nc2ccc3c(n2)CCC(C)(c2ccc(Cl)nn2)C3=O)cc1 (centres unmarked) [Compound 93, N-(6-(6-chloropyridazin-3-yl)-6-methyl-5-oxo-5,6,7,8-tetrahydroquinolin-2-yl)-2-(4-(ethylsulfonyl)phenyl)acetamide] |  |  |  | > 500 | 
13 | CCS(=O)(=O)c1ccc(CC(=O)Nc2cc(C)c3c(n2)CCC(C)(c2ccc(OC)[n+]([O-])n2)C3=O)cc1 (centres unmarked) [Compound 94, 3-(2-(2-(4-(ethylsulfonyl)phenyl)acetamido)-4,6-dimethyl-5-oxo-5,6,7,8-tetrahydroquinolin-6-yl)-6-methoxypyridazine 1-oxide] |  |  |  | > 500 | 
14 | CCS(=O)(=O)c1ccc(CC(=O)Nc2cc(C)c3c(n2)CCC(C)(c2nnc(OC)cc2C)C3=O)cc1 (centres unmarked) [Compound 95, 2-(4-(ethylsulfonyl)phenyl)-N-(6-(6-methoxy-4-methylpyridazin-3-yl)-4,6-dimethyl-5-oxo-5,6,7,8-tetrahydroquinolin-2-yl)acetamide] |  |  |  | > 500 | 
15 | CCS(=O)(=O)c1ccc(CC(=O)Nc2cc(C)c3c(n2)CCC(C)(c2cc(C)c(OC)nn2)C3=O)cc1 (centres unmarked) [Compound 96, 2-(4-(ethylsulfonyl)phenyl)-N-(6-(6-methoxy-5-methylpyridazin-3-yl)-4,6-dimethyl-5-oxo-5,6,7,8-tetrahydroquinolin-2-yl)acetamide] |  |  |  | 100 to 500 | 
16 | CCS(=O)(=O)c1ccc(CC(=O)Nc2ccc3c(n2)CCC(C)(c2nccn4c(F)cnc24)C3=O)cc1 (centres unmarked) [Compound 97, 2-(4-(ethylsulfonyl)phenyl)-N-(6-(3-fluoroimidazo[1,2-a]pyrazin-8-yl)-6-methyl-5-oxo-5,6,7,8-tetrahydroquinolin-2-yl)acetamide] |  |  |  | > 500 | 
17 | CCS(=O)(=O)c1ccc(CC(=O)Nc2cc(C)c3c(n2)CCC(C)(c2ccc(N(C)C)nn2)C3=O)cc1 (centres unmarked) [Compound 98, N-(6-(6-(dimethylamino)pyridazin-3-yl)-4,6-dimethyl-5-oxo-5,6,7,8-tetrahydroquinolin-2-yl)-2-(4-(ethylsulfonyl)phenyl)acetamide] |  |  |  | 100 to 500 | 
18 | CCS(=O)(=O)c1ccc(CNC(=O)c2cc3c(cn2)C(=O)C(C)(c2cc(C)nc(C)n2)CC3)cc1 (centres unmarked) [Compound-134, 7-(2,6-dimethylpyrimidin-4-yl)-N-(4-(ethylsulfonyl)benzyl)-7-methyl-8-oxo-5,6,7,8-tetrahydroisoquinoline-3-carboxamide] |  |  |  | 100 to 500 | 
